Data from patent US9371289B2, “Phenoxyethyl dihydro-1H-isoquinoline compounds” (Eli Lilly and Company, priority 2013, dated 2016).
Counter-ions that a name gives are not always drawn.

Key:
human EP2 = target: T1, human EP2 (Homo sapiens, UniProt P43116); assay: In vitro binding to human EP2 ([3H]-PGE2 displacement, HEK293 membranes); settings: [3H]-PGE2 binding, hEP2 membranes from transiently transfected HEK293 cells
T1 construct: expressed in transfected cells; host or cells: HEK293 (transient), membranes
T1 sequence (P43116 whole entry): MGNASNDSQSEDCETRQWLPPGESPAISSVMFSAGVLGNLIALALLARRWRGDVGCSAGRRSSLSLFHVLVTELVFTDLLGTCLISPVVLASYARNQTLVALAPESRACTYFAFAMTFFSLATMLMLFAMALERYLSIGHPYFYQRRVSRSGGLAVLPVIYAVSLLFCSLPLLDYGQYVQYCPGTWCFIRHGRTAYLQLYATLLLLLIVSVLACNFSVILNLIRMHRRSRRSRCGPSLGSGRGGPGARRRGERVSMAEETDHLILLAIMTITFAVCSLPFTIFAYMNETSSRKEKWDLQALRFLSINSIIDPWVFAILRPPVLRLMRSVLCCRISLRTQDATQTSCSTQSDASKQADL
Procedure: (§1) hEP1 and hEP4 membranes are prepared from recombinant HEK293 cells stably expressing the human EP1 (Genbank accession number AY275470) or EP4 (Genbank accession number AY429109) receptors. hEP2 and hEP3 membranes are prepared from HEK293 cells transiently transfected with EP2 (Genbank accession number AY275471) or EP3 (isoform VI: Genbank accession number AY429108) receptor plasmids. Frozen cell pellets are homogenized in homogenization buffer using a Teflon/glass homogenizer. Membrane protein is aliquoted and quick frozen on dry ice prior to storage at −80° C. […]
(§2) Kd values for [3H]-PGE2 binding to each receptor are determined by saturation binding studies or homologous competition. […] Nonspecific binding is calculated by comparing binding in the presence and absence of 2 μM of PGE2. The membranes are harvested by filtration (TomTek harvester), washed 4 times with cold buffer (10 mM MES pH 6.0 with KOH, 10 mM MgCl2), dried in a 60° C. oven, and the radioactivity is quantified as counts per minute (CPM) using a TopCount® detector. Percent specific binding is calculated as the percent of the binding in the absence of any inhibitor, corrected for non-specific binding in the presence of 2 μM of PGE2. […]

human EP3 = target: T2, human EP3 (Homo sapiens, UniProt P43115); assay: In vitro binding to human EP3 ([3H]-PGE2 displacement, HEK293 membranes); settings: [3H]-PGE2 binding, hEP3 (isoform VI) membranes from transiently transfected HEK293 cells
T2 construct: expressed in transfected cells; host or cells: HEK293 (transient), membranes
T2 sequence (P43115 1-374 isoform P43115-4): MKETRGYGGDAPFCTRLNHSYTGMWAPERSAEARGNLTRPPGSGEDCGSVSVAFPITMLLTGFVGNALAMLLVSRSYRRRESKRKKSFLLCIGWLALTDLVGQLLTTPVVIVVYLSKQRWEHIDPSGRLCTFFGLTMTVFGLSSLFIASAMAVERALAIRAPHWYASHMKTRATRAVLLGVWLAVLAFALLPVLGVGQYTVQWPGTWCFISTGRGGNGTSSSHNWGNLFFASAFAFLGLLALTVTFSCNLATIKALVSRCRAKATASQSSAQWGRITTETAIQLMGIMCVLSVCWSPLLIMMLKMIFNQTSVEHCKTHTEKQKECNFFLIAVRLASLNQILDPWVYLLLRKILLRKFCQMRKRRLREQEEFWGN
Procedure: as §1, §2

human EP4 [1] = target: T3, human EP4 (Homo sapiens, UniProt P35408); assay: In vitro antagonist activity in human whole blood (reversal of PGE2 inhibition of LPS-induced TNFα production); type: cell-based; parameters: Blood is collected from normal volunteer donors; from tissue; host or cells: human whole blood from volunteer donors; settings: LPS 10 μg/mL with 10 nM PGE2, geometric mean ± standard deviation, read-out: IC50 in human blood TNFα induction assay
T3 sequence (P35408 whole entry): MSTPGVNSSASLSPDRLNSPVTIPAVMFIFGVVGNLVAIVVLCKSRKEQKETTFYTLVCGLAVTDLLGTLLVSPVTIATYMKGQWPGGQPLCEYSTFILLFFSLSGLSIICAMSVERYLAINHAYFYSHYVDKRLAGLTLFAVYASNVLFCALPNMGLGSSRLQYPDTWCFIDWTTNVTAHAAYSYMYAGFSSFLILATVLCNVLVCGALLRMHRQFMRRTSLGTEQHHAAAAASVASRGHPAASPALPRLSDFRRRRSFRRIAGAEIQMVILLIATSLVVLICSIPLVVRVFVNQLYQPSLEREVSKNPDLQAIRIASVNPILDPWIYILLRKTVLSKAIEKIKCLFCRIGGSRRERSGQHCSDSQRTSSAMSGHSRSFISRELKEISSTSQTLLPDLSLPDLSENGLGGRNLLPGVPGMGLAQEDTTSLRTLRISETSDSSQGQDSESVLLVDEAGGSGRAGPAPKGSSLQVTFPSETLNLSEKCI
Text: The inhibitory effects of PGE2 on LPS-induced TNFα production from macrophages/monocytes are believed to be mediated by EP4 receptors (See Murase, A., et al., Life Sciences, 82:226-232 (2008)). The ability of the compound of Example 1 to reverse the inhibitory effect of PGE2 on LPS-induced TNFα production in human whole blood is an indicia of functional activity.
Blood is collected from normal volunteer donors into sodium heparin vacutainer tubes. Donors have not taken NSAIDs or celecoxib within 48 hours or glucocorticoids within two weeks prior to the donation. All tubes/donor are pooled into 50 mL Falcon conical centrifuge tubes and 98 μL/well is distributed into 96-well tissue culture plates (Falcon 3072). […] TNFα levels in 2 μL plasma are quantified by a commercially available enzyme immunoassay (R&D Systems DY210), using Immulon 4 HBX plates (Thermo 3855) and 3,3′,5,5′ tetramethylbiphenyl-4,4′-diamine substrate (KPL 50-76-03). The plates are read at A450-A650 on a plate reader (Molecular Devices Versamax) using SOFTmaxPRO (v. 4.3.1) software. IC50s are calculated using Graphpad Prism (v. 4) nonlinear regression, with sigmoidal dose response curve fitting. Results are expressed as the geometric mean±standard deviation; n=number of independent determinations.

human EP1 = target: T4, human EP1 (Homo sapiens, UniProt P34995); assay: In vitro binding to human EP1 ([3H]-PGE2 displacement, HEK293 membranes); settings: [3H]-PGE2 binding, hEP1 membranes from recombinant HEK293 cells
T4 construct: expressed in transfected cells
T4 sequence (P34995 1-402): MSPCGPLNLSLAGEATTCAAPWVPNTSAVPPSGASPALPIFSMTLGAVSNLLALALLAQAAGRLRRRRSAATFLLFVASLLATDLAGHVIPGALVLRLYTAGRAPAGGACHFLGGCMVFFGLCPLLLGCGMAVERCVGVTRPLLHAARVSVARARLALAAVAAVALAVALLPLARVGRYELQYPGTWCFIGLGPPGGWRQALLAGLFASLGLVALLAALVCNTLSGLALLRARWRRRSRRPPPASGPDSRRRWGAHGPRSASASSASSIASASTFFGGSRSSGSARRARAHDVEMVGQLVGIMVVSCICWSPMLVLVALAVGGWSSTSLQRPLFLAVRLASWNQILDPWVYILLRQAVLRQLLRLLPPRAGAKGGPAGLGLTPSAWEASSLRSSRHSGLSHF
Procedure: as §1, §2

rat EP4 = target: T5, rat EP4 (Rattus norvegicus, UniProt P43114); assay: In vitro rat EP4 functional antagonist activity (cAMP HTRF); type: cell-based; settings: HEK293 cells expressing rat EP4; PGE2 at EC80; n=1; read-out: IC50 measured at rat EP4 (cAMP)
T5 construct: expressed in transfected cells
T5 sequence (P43114 whole entry): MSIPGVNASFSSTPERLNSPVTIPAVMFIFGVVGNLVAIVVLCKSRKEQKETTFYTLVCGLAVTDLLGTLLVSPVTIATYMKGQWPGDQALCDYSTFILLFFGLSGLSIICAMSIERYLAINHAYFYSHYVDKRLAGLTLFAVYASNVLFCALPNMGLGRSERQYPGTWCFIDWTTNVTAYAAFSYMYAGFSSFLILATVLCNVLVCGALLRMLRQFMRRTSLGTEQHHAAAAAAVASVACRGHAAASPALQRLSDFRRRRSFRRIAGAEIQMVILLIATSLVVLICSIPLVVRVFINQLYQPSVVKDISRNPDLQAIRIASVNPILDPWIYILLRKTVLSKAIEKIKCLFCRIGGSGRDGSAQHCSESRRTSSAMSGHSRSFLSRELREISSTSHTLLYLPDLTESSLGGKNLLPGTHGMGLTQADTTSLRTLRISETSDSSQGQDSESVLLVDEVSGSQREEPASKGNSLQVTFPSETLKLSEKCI
Procedure: Rat EP4 cDNA (Genebank Accession# NM_03276) is cloned into pcDNA 3.1 vector and subsequently transfected in HEK293 cells for receptor expression. Rat EP4 stable clone is scaled up and then frozen down as cell bank for future compounds screening. To test EP4 antagonist compounds in rEP4 cells, thaw the frozen cells and then resuspend cells in cAMP assay buffer. The cAMP buffer is made by HBSS without Phenol Red (Hyclone, SH30268) supplemented with 20 mM HEPES (Hyclone, SH30237), 0.1% BSA (Gibco, 15260) and 125 μM IBMX (Sigma, 15879) (see e.g., Murase, A., et al., Life Sciences, 82:226-232 (2008)). The cells are plated into 96-well half area flat-bottom polystyrene black plates (Costar 3694). Compounds are serial diluted with DMSO to give 10-point concentration response curves. Then diluted compounds are added into cAMP assay buffer which contains PGE2 (Cayman 14010, in a concentration predetermined to produce an EC80) at ratio of DMSO/buffer at 1/100. The cells are treated with compounds in the presence of PGE2 (EC80 concentration) for 30 minutes at room temperature. The cAMP levels generated from the cells are quantified by a cAMP HTRF assay kit (Cisbio 62AM4PEC). The plates are read on an EnVision plate reader using HTRF optimized protocol (PerkinElmer). IC50s are calculated using Graphpad Prism (v. 4) nonlinear regression, sigmoidal dose response curve fitting.

human EP4 [2] = target: T3, human EP4; assay: In vitro binding to human EP4 ([3H]-PGE2 displacement, HEK293 membranes); parameters: expressed in transfected cells; settings: [3H]-PGE2 binding, hEP4 membranes from recombinant HEK293 cells
Procedure: as §1, §2

human EP4 [3] = target: T3, human EP4; assay: In vitro human EP4 functional antagonist activity (inhibition of PGE2-stimulated cAMP production, HTRF); type: cell-based; parameters: expressed in transfected cells; settings: HEK293 cells stably expressing human EP4; PGE2 at EC80 (0.188 nM); read-out: IC50 measured at human EP4 (inhibition of PGE2-stimulated cAMP production)
Procedure: Assays are conducted in recombinant HEK293 cells stably expressing human EP4 receptor. The cell lines are maintained by culturing in DMEM with high glucose and pyridoxine hydrochloride (Invitrogen) supplemented with 10% fetal bovine serum (FBS), 1 mM sodium pyruvate, 10 mM HEPES, 500 μg/mL geneticin and 2 mM L-glutamine. Confluent cultures are grown at 37° C. in an atmosphere containing 5% CO2. Cells are harvested using 0.25% Trypsin-EDTA, suspended in freeze media (FBS with 6% DMSO) at 10^7 cells/mL and aliquots are stored in liquid nitrogen. Just before assay, cells are thawed in DMEM, centrifuged, and resuspended in cAMP buffer.
The inhibition of PGE2-stimulated cAMP production by EP4 antagonists is measured using HTRF (Cisbio catalogue #62AM4PEB). An aliquot equivalent to 4000 cells is incubated with 50 μL cAMP assay buffer containing PGE2 in a concentration predetermined to produce an EC80 (0.188 nM PGE2 from Sigma, catalog # P5640-10 mg) and EP4 antagonists at room temperature for 20 minutes. cAMP assay buffer contains 500 mL HBSS, 0.1% BSA, 20 mM HEPES and 200 μM IBMX (Sigma I5879). […] The HTRF signal is detected using an EnVision plate reader (Perkin-Elmer) to calculate the ratio of fluorescence at 665 nm to that at 620 nm. […]

SMILES	Ki (human EP2) [nM]	Ki (human EP3) [nM]	IC50 (human EP4 [1]) [nM]	Ki (human EP1) [nM]	IC50 (rat EP4) [nM]	Ki (human EP4 [2]) [nM]	IC50 (human EP4 [3]) [nM]
C[C@H](NC(=O)[C@H]1Cc2ccccc2CN1CCOc1ccccc1)c1ccc(C(=O)O)cc1 [Example 1, 4-[(1S)-1-[[(3R)-2-(2-phenoxyethyl)-3,4-dihydro-1H-isoquinoline-3-carbonyl]amino]ethyl]benzoic acid]	1320 ± 1780	> 14800	39 ± 21	7920 ± 5810	2	0.403 ± 0.247	0.752 ± 0.538
C[C@H](NC(=O)[C@H]1Cc2ccccc2CN1CCOc1ccc(F)cc1)c1ccc(C(=O)O)cc1 [Example 2, 4-[(1S)-1-[[(3R)-2-(2-(4-fluorophenoxy)ethyl)-3,4-dihydro-1H-isoquinoline-3-carbonyl]amino]ethyl]benzoic acid hydrochloride]	331 ± 72	> 14600	61 ± 55	4650	6.7	0.38 ± 0.142	0.45 ± 0.256
